In patent US11180498B2, “Substituted pyrrolo[2,3-b]pyridines, pyrazolo[3,4-d]pyrimidines and [1,2,3]triazolo[4,5-b]pyridines as potent antivirals” (The Regents of the University of California, priority 2017, dated 2021):

Columns and labels:
Coxsackievirus B1 = experiment: Virus CPE assay, CVB1 in HeLa-RW cells; type: cell-based; details: Enterovirus B, >10 = no antiviral activity at 10 μM
Coxsackievirus A9 = experiment: Virus CPE assay, COX A9 in LLC cells; type: cell-based; details: Enterovirus B, >10 = no antiviral activity at 10 μM
LLC cells = experiment: Cytotoxicity (CC50) in LLC cells; type: cell-based; details: concentration that reduces host cell viability by 50%
Protocol: (§1) Each compound is initially tested against each virus at 10 μM in a virus CPE assay. A compound that is active against a virus, protecting the cells from CPE, is further evaluated for its 50% effective concentration (EC50) value and 50% cytotoxicity concentration (CC50) value. Serial 2-fold dilutions of an active compound are prepared. For EC50 value determination, a 7-point dose-response curve is constructed using a virus CPE assay and EC50 value is estimated using four parameter model or sigmoidal model. For CC50 value determination, cells are incubated with serial 2-fold dilutions of a compound for the same period as the virus CPE assay, and then cells were fixed, stained and read as in the virus CPE assay.
(§2) Table 3 provides the compound concentration in μM units that reduces cell viability of the host cell by 50% (CC50) for certain compounds of the present technology for HeLa-RW and LLC cells. Blank cells indicate that the cytotoxicity assessment is not yet complete.

[1] = Cytotoxicity (CC50) in RD cells; type: cell-based; details: human
Protocol: as §1
Table 4 provides the results of cell-based assays with RD cells evaluating the antiviral activities of certain representative compounds of the present technology with certain strains of Enterovirus D68, namely strains Fermon (“D68/Fermon”), US/Mo/14-18949 (“D68/US/Mo/14-18949”), and US/KY/14-18953 (“D68/US/KY/14-18953”). The values indicated in the strain columns are EC50 values in μM units. The CC50 values (in μM units) for RD cells are also provided for evaluation of SI50.

Echovirus 6 = experiment: Virus CPE assay, ECHO06 in LLC cells; type: cell-based; details: Enterovirus B, >10 = no antiviral activity at 10 μM
[2] = system: Enterovirus D68 strain US/KY/14-18953; experiment: Virus CPE assay, Enterovirus D68 US/KY/14-18953 in RD cells; type: cell-based; details: Enterovirus D
Protocol: (§3) Cells growing in 96 well plates are infected with a given virus at given low multiplicities of infection pre-determined to result in 100% cytopathic effects (CPE) in the cultures after 3-4 days incubation. Cultures are monitored daily for microscopic signs of typical CPE: rounding of cells and detachment. […] Dead cells and debris are washed out and the remaining blue stain intensity in each well is quantified by spectrophotometry at a wavelength of 590 nm (OD590) as a measurement of viability. […] Serial 2-fold dilutions of an active compound are prepared. […] Table 4 provides the results of cell-based assays with RD cells evaluating the antiviral activities of certain representative compounds of the present technology with certain strains of Enterovirus D68, namely strains Fermon (“D68/Fermon”), US/Mo/14-18949 (“D68/US/Mo/14-18949”), and US/KY/14-18953 (“D68/US/KY/14-18953”). The values indicated in the strain columns are EC50 values in μM units. The CC50 values (in μM units) for RD cells are also provided for evaluation of SI50.

Poliovirus 3 = experiment: microbe, parasite or virus in culture; type: cell-based; details: Enterovirus C, read-out: EC50 PV3
Coxsackievirus B2 = experiment: Virus CPE assay, CVB2 in HeLa-RW cells; type: cell-based; details: Enterovirus B, >10 = no antiviral activity at 10 μM
Echovirus 30 = experiment: Virus CPE assay, ECHO30 in LLC cells; type: cell-based; details: Enterovirus B, >10 = no antiviral activity at 10 μM
Coxsackievirus B5 = experiment: Virus CPE assay, CVB5 in HeLa-RW cells; type: cell-based; details: Enterovirus B, >10 = no antiviral activity at 10 μM
Coxsackievirus B3-H3 = experiment: Virus CPE assay, CVB3-H3 in HeLa-RW cells; type: cell-based; details: >10/>25 = no antiviral activity at 10 or 25 μM
[3] = system: Enterovirus D68 strain US/Mo/14-18949; experiment: Virus CPE assay, Enterovirus D68 US/Mo/14-18949 in RD cells; type: cell-based; details: for EC50: Enterovirus D, RD cells
Protocol: as §3

[4] = system: Enterovirus D68 strain Fermon; experiment: Virus CPE assay, Enterovirus D68 Fermon in RD cells; type: cell-based; details: Enterovirus D
Protocol: as §3

Echovirus 9 = experiment: Virus CPE assay, ECHO09 in LLC cells; type: cell-based; details: Enterovirus B, >10 = no antiviral activity at 10 μM
Enterovirus 71 = experiment: Virus CPE assay, EV71 in LLC cells; type: cell-based; details: Enterovirus A, >10 = no antiviral activity at 10 μM
Echovirus 25 = experiment: Virus CPE assay, ECHO25 in LLC cells; type: cell-based; details: Enterovirus B, >10 = no antiviral activity at 10 μM
Echovirus 7 = experiment: Virus CPE assay, ECHO07 in LLC cells; type: cell-based; details: Enterovirus B, >10 = no antiviral activity at 10 μM
HeLa-RW cells = experiment: Cytotoxicity (CC50) in HeLa-RW cells; type: cell-based; details: concentration that reduces host cell viability by 50%
Protocol: as §1, §2

Poliovirus 1 = experiment: microbe, parasite or virus in culture; type: cell-based; details: Enterovirus C, read-out: EC50 PV1
Coxsackievirus B4 = experiment: Virus CPE assay, CVB4 in HeLa-RW cells; type: cell-based; details: Enterovirus B, >10 = no antiviral activity at 10 μM
Echovirus 11 = experiment: Virus CPE assay, ECHO11 in LLC cells; type: cell-based; details: Enterovirus B, >10 = no antiviral activity at 10 μM
Enterovirus D68 = experiment: Antiviral cell-based assays, summary for at least one strain; details: Enterovirus D, not named, read-out: EC50 against at least one strain
Protocol: as §3

[5] = Cytotoxicity (CC50) in LLC cells; type: cell-based; details: LLC cells; concentration that reduces host cell viability by 50%
Protocol: as §1, §2

CC(C)n1ncc2c(C(=O)Nc3ccccc3F)cc(-c3cccs3)nc21 [JX-001, reference compound]
EC50 (Coxsackievirus B1): 2.4 ± 0.2 µM
EC50 (Coxsackievirus A9): 2.6 ± 0.9 µM
CC50 (LLC cells): 50 µM
CC50 [1]: 200 µM
EC50 (Echovirus 6): 2.3 ± 0.9 µM
EC50 [2]: 0.5 ± 0.17 µM
EC50 (Poliovirus 3): 7 µM
EC50 (Coxsackievirus B2): 2.8 ± 0.4 µM
EC50 (Echovirus 30): 1.2 µM
EC50 (Coxsackievirus B5): 2.3 µM
EC50 (Coxsackievirus B3-H3): 1.4 ± 0.6 µM
EC50 [3]: 0.33 ± 0.05 µM
EC50 [4]: 0.35 ± 0.05 µM
EC50 (Echovirus 9): 2.1 ± 1.2 µM
EC50 (Enterovirus 71): 2.3 ± 1.2 µM
EC50 (Echovirus 25): 3 µM
EC50 (Echovirus 7): 2.4 µM
CC50 (HeLa-RW cells): 12.5 µM
EC50 (Poliovirus 1): 7 µM
EC50 (Coxsackievirus B4): 2.3 µM
EC50 (Echovirus 11): 1.5 ± 0.4 µM

CC(C)n1ccc2c(C(=O)Nc3ccccn3)cc(-c3cccs3)nc21 [JX-072]
EC50 (Enterovirus D68): < 1 µM
EC50 (Coxsackievirus B1): 1.56 µM
CC50 (LLC cells): > 200 µM
CC50 [1]: 25 µM
EC50 [2]: 0.6 µM
EC50 (Poliovirus 3): > 10 µM
EC50 (Coxsackievirus B2): 2.33 µM
EC50 (Coxsackievirus B3-H3): 2.2 ± 0.4 µM
EC50 [4]: < 0.4 µM
EC50 (Enterovirus 71): 1.2 µM
EC50 (Echovirus 7): 3 µM
CC50 (HeLa-RW cells): 18.8 µM
EC50 (Poliovirus 1): > 10 µM

CC(C)n1nnc2c(C(=O)Nc3ccc(F)cc3)cc(-c3cccs3)nc21 [JX-035]
EC50 (Coxsackievirus B1): > 10 µM
EC50 (Coxsackievirus A9): > 10 µM
EC50 (Echovirus 6): > 10 µM
EC50 (Poliovirus 3): > 10 µM
EC50 (Coxsackievirus B2): > 10 µM
EC50 (Echovirus 30): > 10 µM
EC50 (Coxsackievirus B5): > 10 µM
EC50 (Coxsackievirus B3-H3): > 10 µM
EC50 (Echovirus 9): > 10 µM
EC50 (Enterovirus 71): > 10 µM
EC50 (Echovirus 25): > 10 µM
EC50 (Echovirus 7): > 10 µM
EC50 (Poliovirus 1): > 10 µM
EC50 (Coxsackievirus B4): > 10 µM
EC50 (Echovirus 11): > 10 µM

CC(C)n1ccc2c(C(=O)Nc3ccncc3)cc(-c3cccs3)nc21 [JX-063]
EC50 (Coxsackievirus B1): > 10 µM
EC50 (Poliovirus 3): > 10 µM
EC50 (Coxsackievirus B2): > 10 µM
EC50 (Coxsackievirus B5): > 10 µM
EC50 (Coxsackievirus B3-H3): > 10 µM
EC50 (Poliovirus 1): > 10 µM
EC50 (Coxsackievirus B4): > 10 µM

CC(C)n1ccc2c(C(=O)Nc3ccc(F)cc3)cc(-c3cccs3)nc21 [JX-037]
EC50 (Enterovirus D68): < 1 µM
EC50 (Coxsackievirus B1): 3.6 ± 0.6 µM
CC50 [5]: 100 µM
CC50 [1]: > 200 µM
EC50 [2]: 1.1 ± 0.3 µM
EC50 (Poliovirus 3): > 25 µM
EC50 (Coxsackievirus B2): 3.6 ± 0.6 µM
EC50 (Coxsackievirus B5): 2.7 ± 0.6 µM
EC50 (Coxsackievirus B3-H3): 3.1 ± 0.1 µM
SI ([3]; Enterovirus D68/US/Mo/14-18949, >200/0.57): over 350
EC50 [3]: 0.57 ± 0.15 µM
EC50 [4]: 0.86 ± 0.31 µM
EC50 (Enterovirus 71): 2.2 µM
EC50 (Poliovirus 1): > 25 µM
EC50 (Coxsackievirus B4): 3.1 ± 0.1 µM

CC(C)n1ccc2c(C(=O)Nc3cccnc3)cc(-c3cccs3)nc21 [JX-062]
EC50 (Enterovirus D68): < 1 µM
EC50 (Coxsackievirus B1): 1.2 µM
CC50 (LLC cells): 25 µM
CC50 [1]: 25 µM
EC50 [2]: 0.26 ± 0.07 µM
EC50 (Poliovirus 3): > 10 µM
EC50 (Coxsackievirus B2): 1.2 µM
EC50 (Coxsackievirus B5): 1.2 µM
EC50 (Coxsackievirus B3-H3): 1.3 µM
EC50 [3]: 0.13 ± 0.03 µM
EC50 [4]: 0.16 ± 0.03 µM
EC50 (Echovirus 9): 0.4 µM
EC50 (Enterovirus 71): 0.8 µM
CC50 (HeLa-RW cells): 18 µM
EC50 (Poliovirus 1): > 10 µM
EC50 (Coxsackievirus B4): 1.2 µM
EC50 (Echovirus 11): 1.2 µM

CC(C)n1ncc2c(C(=O)Nc3ccc(F)cc3)nc(-c3cccs3)nc21 [JX-036]
EC50 (Coxsackievirus B1): > 10 µM
EC50 (Coxsackievirus A9): > 10 µM
EC50 (Echovirus 6): > 10 µM
EC50 (Poliovirus 3): > 10 µM
EC50 (Coxsackievirus B2): > 10 µM
EC50 (Echovirus 30): > 10 µM
EC50 (Coxsackievirus B5): > 10 µM
EC50 (Coxsackievirus B3-H3): > 10 µM
EC50 (Echovirus 9): > 10 µM
EC50 (Enterovirus 71): > 10 µM
EC50 (Echovirus 25): > 10 µM
EC50 (Echovirus 7): > 10 µM
EC50 (Poliovirus 1): > 10 µM
EC50 (Coxsackievirus B4): > 10 µM
EC50 (Echovirus 11): > 10 µM
